# Results as given in publication PMC12299477 (Viruses, 2025).
# What was measured:
# [1] = Cell viability MTS assay on MDCK cells; settings: dog
# [2] = Cell viability MTS assay on Hep-2 cells; settings: human
# [3] = test system: human bronchial epithelium (MucilAir); test: LDH cytotoxicity assay on 3D human bronchial epithelium; format: cell-based; settings: 6 µM and 12 µM, harvested daily up to 72 h
# IFV-A H1N1 [4] = test: Virus inhibition assay, IFV-A H1N1 on A549 cells; format: cell-based; settings: Influenza A virus, read-out: EC50 (µM) (95% CI)
# Hep-2 cells = test: Cytotoxic effect microscopically visible in the RSV-A2 screening; format: cell-based, human; parameters: key: -: Cytotoxic effect microscopically visible
# RSV-A2 [5] = test: Virus inhibition assay (plaque reduction), RSV-A2 on Hep-2 cells; format: cell-based; settings: human respiratory syncytial virus
# RSV-A2 [6] = test: Time-of-addition assay, RSV-A2; format: cell-based, respiratory syncytial virus
# IFV-A H3N2 = test: Virus inhibition assay, IFV-A H3N2 on MDCK cells; format: cell-based; settings: Influenza A virus, read-out: EC50 (µM) (95% CI)
# HCoV-OC43 [7] = test: Virus inhibition assay, HCoV-OC43 on A549 cells; format: cell-based, human coronavirus; settings: Betacoronavirus 1, read-out: EC50 (µM) (95% CI)
# RSV-B = test: Virus inhibition assay, RSV strain B WV/14617/85 on Hep-2 cells; format: cell-based; settings: human respiratory syncytial virus; RSV B WV/14617/85, Hep-2 cells; read-out: EC50 (µM) (95% CI)
# IFV-A H1N1 [8] = test: Virus inhibition assay (focus reduction), IFV-A H1N1 on MDCK cells; format: cell-based; settings: Influenza A virus, read-out: EC50 (µM) (95% CI)
# RSV-A2 [9] = test: Virus inhibition assay, RSV-A2 on A549 cells; format: cell-based; settings: human respiratory syncytial virus, read-out: EC50 (µM) (95% CI)
# in vitro [10] = settings: human
# HCoV-OC43 [11] = test: Time-of-addition assay, HCoV-OC43; format: cell-based, human coronavirus; settings: for EC50: Betacoronavirus 1, HCoV-OC43
# HCoV-229E = test: Virus inhibition assay, HCoV-229E on MRC-5 cells; format: cell-based; settings: Human coronavirus 229E, MRC5, read-out: EC50 (µM) (95% CI)
# HCoV-OC43 [12] = test: Virus inhibition assay (focus reduction), HCoV-OC43 on MRC-5 cells; format: cell-based, human coronavirus; settings: for EC50: Betacoronavirus 1, OC43, MRC5, read-out: EC50 (µM) (95% CI); for activity at 0.3 µM / activity at 3 µM / activity at 33 µM: Betacoronavirus 1, OC43, MRC5, 20 h, read-out: Residual Virus Infectivity (%) HCoV-OC43
# IFV-B = test: Virus inhibition assay, IFV-B on MDCK cells; format: cell-based; settings: unidentified influenza virus, read-out: EC50 (µM) (95% CI)
# HCoV-OC43 [13] = test: Virus inactivation (virucidal) assay, HCoV-OC43; format: cell-based, human coronavirus; settings: EC90 dose, 2 h incubation with 200,000 FFUs
# RSV-A2 [14] = test: Immunofluorescence of dsRNA and viral protein, RSV-A2 in Hep-2 cells; format: cell-based, respiratory syncytial virus; settings: EC50 (2µM) or 2-fold EC90 dose (30µM), 24h post-infection
# RSV-A2 [15] = test: Anti-RSV activity on a 3D model of human bronchial epithelium; format: cell-based, respiratory syncytial virus; settings: for Reduction in RSV progeny: 72 h post-infection, 10,000 PFUs
# RSV-A2 [16] = test: Virus inactivation (virucidal) assay, RSV-A2; format: cell-based, respiratory syncytial virus; settings: EC90 dose, 2 h incubation with 200,000 PFUs
# [17] = Cell viability MTS assay on MRC-5 cells; format: cell-based; settings: human, same conditions as HCoV inhibition assay, read-out: CC50 (µM) (95% CI)
# MDCK cells = test: Cytotoxic effect microscopically visible in the IFV-A H1N1 screening; format: cell-based, canine; parameters: key: -: Cytotoxic effect microscopically visible; settings: 33 µM
# MRC-5 cells = test: Cytotoxic effect microscopically visible in the HCoV-OC43 screening; format: cell-based, human; parameters: key: -: Cytotoxic effect microscopically visible; settings: 33 µM
# in vitro [18] = settings: dog
# in vitro [19] = settings: human; remark: listed apart in the source
# [20] = RSV-A2, Hep-2 cells, read-out: EC50 (µM) (95% CI)
# [21] = HEp-2, 72 h, read-out: Residual Virus Infectivity (%) RSV-A2
smiles,measurement,setting,value
CC(C)(CC(=O)O)NC(=O)c1cc(-c2ccccc2)c(=O)n2c1sc1ccc(OC3CCCCC3)cc12 [Compound 1],CC50,[1],41.1 µM
same,CC50,[2],61.3 µM
same,Cytotoxic effect on the epithelia (LDH assay on basal media),[3],did not exert any cytotoxic effect
same,EC50,IFV-A H1N1 [4],6.29 µM
same,Cytotoxic effect microscopically visible,Hep-2 cells; 33 µM,- ^a
same,EC50,RSV-A2 [5]; [20],1.3 µM
same,"Activity against RSV, pre-treatment",RSV-A2 [6]; compound added 2 h before infection,not active
same,"Activity against RSV, co-treatment","RSV-A2 [6]; compound added with virus inoculum, first 2 h of infection",not active
same,EC50,"RSV-A2 [6]; human respiratory syncytial virus, RSV, treated 72 h after removal of viral inoculum, read-out: EC50, post-treatment",8.2 µM
same,EC50,IFV-A H3N2,5.96 µM
same,EC50,HCoV-OC43 [7],8.14 µM
same,EC50,RSV-B,4.23 µM
same,EC50,IFV-A H1N1 [8],5.49 µM
same,EC50,RSV-A2 [9],7.78 µM
same,CC50,in vitro [10],57.6 µM
same,CC50,"in vitro [10]; CC50 (µM) (95% CI), A549 cells, HCoV OC43 assay conditions",150 µM
same,CC50,"in vitro [10]; CC50 (µM) (95% CI), A549 cells, RSV A2 assay conditions",30.8 µM
same,EC50,"HCoV-OC43 [11]; after infection, read-out: EC50, post-treatment",7.5 µM
same,EC50,"HCoV-OC43 [11]; during infection, read-out: EC50, co-treatment",16.3 µM
same,"Activity against HCoV-OC43, treatment before the infection",HCoV-OC43 [11]; pre-treatment,did not exert inhibitory activity
same,EC50,HCoV-229E,45.3 µM
same,EC50,HCoV-OC43 [12],4.83 µM
same,EC50,IFV-B,4.21 µM
same,Virucidal activity: HCoV-OC43 titer,HCoV-OC43 [13],modest—although negligible—reduction
same,Effect on nucleic acid replication and viral protein production of RSV-A2,RSV-A2 [14],did not inhibit
same,Reduction in RSV progeny,RSV-A2 [15]; 6 µM every 24 h,1.1 log
same,Reduction in RSV progeny,RSV-A2 [15]; 12 µM every 24 h,1.5 log
same,Morphology of the bronchial epithelial cells in infected treated sample,"RSV-A2 [15]; brightfield images, compared to infected untreated",sufficiently preserved
same,Anti-RSV immunopositivity of the epithelia,"RSV-A2 [15]; end of experiment, immunofluorescence",reduction in immunopositivity
same,Virucidal activity on extracellular RSV particle,RSV-A2 [16],did not directly inactivate
same,CC50,[17],59.6 µM
COc1ccc(-c2cc(C(=O)N[C@@H](Cc3ccc(O)cc3)C(=O)O)c3sc4ccc(OC5CCCCC5)cc4n3c2=O)cc1F [Compound 2],Cytotoxic effect microscopically visible,Hep-2 cells; 33 µM,-
same,activity at 0.3 µM,RSV-A2 [5]; [21],100%
same,activity at 3 µM,RSV-A2 [5]; [21],44%
same,activity at 0.3 µM,HCoV-OC43 [12],95%
same,activity at 3 µM,HCoV-OC43 [12],54%
same,activity at 33 µM,HCoV-OC43 [12],1%
same,EC50,HCoV-OC43 [12],4.67 µM
same,CC50,[17],82.9 µM
C[C@H](CO)NC(=O)c1cc(-c2ccccc2)c(=O)n2c1sc1ccc(OC3CCCCC3)cc12 [Compound 7],Cytotoxic effect microscopically visible,MDCK cells,-
same,Cytotoxic effect microscopically visible,Hep-2 cells; 3 µM,-
same,Cytotoxic effect microscopically visible,Hep-2 cells; 33 µM,-
same,Cytotoxic effect microscopically visible,MRC-5 cells,-
O=C(c1cc(-c2ccccc2)c(=O)n2c1sc1ccc(OC3CCCCC3)cc12)N1CCC[C@@H](O)C1 [Compound 11],Cytotoxic effect microscopically visible,MDCK cells,-
same,Cytotoxic effect microscopically visible,Hep-2 cells; 3 µM,-
same,Cytotoxic effect microscopically visible,Hep-2 cells; 33 µM,-
same,Cytotoxic effect microscopically visible,MRC-5 cells,-
O=C(NCc1ccc(O)cc1)c1cc(-c2ccccc2)c(=O)n2c1sc1ccc(OC3CCCCC3)cc12 [Compound 13],CC50,[2],> 200 µM
same,activity at 0.3 µM,RSV-A2 [5]; [21],100%
same,activity at 3 µM,RSV-A2 [5]; [21],15%
same,activity at 33 µM,RSV-A2 [5]; [21],0%
same,EC50,"RSV-A2 [5]; HEp-2, read-out: EC50 (µM) (95% CI)",2.87 µM
same,activity at 0.3 µM,HCoV-OC43 [12],100%
same,activity at 3 µM,HCoV-OC43 [12],100%
same,activity at 33 µM,HCoV-OC43 [12],64%
O=C(N[C@@H](Cc1ccc(O)cc1)C(=O)O)c1cc(-c2cccc(F)c2)c(=O)n2c1sc1ccc(OC3CCCCC3)cc12 [Compound 16],CC50,[2],72.9 µM
same,EC50,RSV-A2 [5]; [20],18.6 µM
same,EC50,HCoV-OC43 [12],4.22 µM
same,CC50,[17],84.7 µM
CC(C)C(CC(=O)O)NC(=O)c1cc(-c2ccccc2)c(=O)n2c1sc1ccc(OC3CCCCC3)cc12 (stereo not shown) [Compound 19],Cytotoxic effect microscopically visible,MDCK cells,-
same,Cytotoxic effect microscopically visible,Hep-2 cells; 33 µM,-
same,Cytotoxic effect microscopically visible,MRC-5 cells,-
CC(CC(=O)O)NC(=O)c1cc(-c2ccccc2)c(=O)n2c1sc1ccc(OC3CCCCC3)cc12 (stereo not shown) [Compound 21],Cytotoxic effect microscopically visible,MDCK cells,-
same,Cytotoxic effect microscopically visible,Hep-2 cells; 33 µM,-
same,Cytotoxic effect microscopically visible,MRC-5 cells,-
CCN(CC)CCOc1ccc(-c2cc(C(=O)Oc3ccc(S(N)(=O)=O)cc3)c3sc4ccc(OC5CCCCC5)cc4n3c2=O)cc1 [Compound 22],Cytotoxic effect microscopically visible,MDCK cells,-
same,Cytotoxic effect microscopically visible,Hep-2 cells; 33 µM,-
NS(=O)(=O)c1ccc(OC(=O)c2ccc(=O)n3c2sc2ccc(OC4CCCCC4)cc23)cc1 [Compound 24],Cytotoxic effect microscopically visible,MDCK cells,-
same,Cytotoxic effect microscopically visible,Hep-2 cells; 33 µM,-
same,Cytotoxic effect microscopically visible,MRC-5 cells,-
O=C(N[C@@H](Cc1ccc(O)cc1)C(=O)O)c1cc(-c2cccs2)c(=O)n2c1sc1ccc(OC3CCCCC3)cc12 [Compound 25],CC50,[1],86.1 µM
same,Cytotoxic effect microscopically visible,Hep-2 cells; 33 µM,-
same,EC50,IFV-A H1N1 [8],13.7 µM
same,EC50,HCoV-OC43 [12],0.29 µM
same,CC50,[17],16.5 µM
CCN(CC)CCOc1ccc2sc3c(C(=O)Oc4ccc(S(N)(=O)=O)cc4)cc(-c4ccccc4)c(=O)n3c2c1 [Compound 28],Cytotoxic effect microscopically visible,MDCK cells,-
same,Cytotoxic effect microscopically visible,Hep-2 cells; 33 µM,-
same,Cytotoxic effect microscopically visible,MRC-5 cells,-
NS(=O)(=O)c1ccc(OC(=O)c2cc(NCCN3CCOCC3)c(=O)n3c2sc2ccc(OC4CCCCC4)cc23)cc1 [Compound 29],Cytotoxic effect microscopically visible,MDCK cells,-
same,Cytotoxic effect microscopically visible,Hep-2 cells; 33 µM,-
same,Cytotoxic effect microscopically visible,MRC-5 cells,-
"CCOC(=O)C1=C[C@@H](OC(CC)CC)[C@H](NC(C)=O)[C@@H](N)C1 [oseltamivir, reference compound]",EC50,IFV-A H1N1 [8],0.17 µM
same,CC50,in vitro [18],> 200 µM
"NC(=O)c1ncn([C@@H]2O[C@H](CO)[C@@H](O)[C@H]2O)n1 [ribavirin, reference compound]",EC50,RSV-A2 [5]; [20],37 µM
same,CC50,in vitro [19],> 2400 µM
